“And” between values parts separate entries of the source, which are not always exact repeats. Equal entries are not always repeated.
Tested on: OIR mice
Test: Retinal NV in the oxygen-induced retinopathy (OIR) mouse model
Type: in vivo
Parameters: Figure 14 C (retinal NV, OIR) / Figure 14 E (retinal NV, OIR): unit not given here
Source text: To characterize the contribution of these other HIF-regulated angiogenic factors to the promotion of ischemia-driven retinal NV in vivo, we used the classic oxygen-induced retinopathy (OIR) model characterized by Smith and colleagues ([35]). In stage 1 of this model, P7 pups are exposed to hyperoxia (75% O2) for 5 consecutive days (P7–P12), resulting in obliteration of the posterior retinal vasculature. In stage 2, pups (at P12) are returned to room air (21% O2). The resulting relative ischemia promotes the expression of angiogenic mediators that stimulate the development of retinal NV (peaking at P17; Figure 2A). […]
Animal studies. Eight-week-old pathogen-free female C57BL/6 mice were obtained from The Jackson Laboratory (JAX). Timed pregnant C57BL/6 mice were obtained from Charles River Laboratories. Mice heterozygous for HIF-1α have been previously described (2). Mice heterozygous for HIF-2α (strain number: 003266; common name: EPAS1 KO) were purchased […]
OIR mouse model. OIR experiments were performed as previously described (1, 3). Briefly, C57BL/6 mice were placed in 75% O2 on P7. On P12, the mice were returned to room air and were […]
(or vehicle) by intravitreal injection. Mice with body weight less than 6 g at P17 were excluded […]
from analysis. Data were collected from both males and females and the results were combined since there was no apparent difference between sexes. Representative images for selected time points from a minimum of three independent experiments are shown. Data from 3-8 pups were obtained at each time point. […]
Intraperitoneal (IP) injections. […]
intraperitoneally using an insulin syringe in OIR pups. […]
the peritoneal cavity of neonatal C57BL/6 mice and STZ mice at indicated times, and the retinal vasculature and lysates for WB and qPCR were assessed at P17.
Intraocular injections. Intravitreal injections were performed with a PLI-100A Pico-liter Microinjector (Warner Instruments, Harvard Bioscience) using pulled-glass micropipettes. Each micropipette was calibrated to deliver a 1 μl volume on depression of a foot switch. The mice were anesthetized with a ketamine (100 mg/kg) and xylazine (5mg/kg) mixture, and under a dissecting microscope, the sharpened tip of the micropipette was passed through the sclera just posterior to the limbus into the vitreous cavity and the foot switch was depressed, which caused fluid to […]
penetrate into the vitreous space. […]
mice for vascular permeability test, retinal vasculature, and lysates for WB and qPCR analysis.
Immunoﬂuorescence assays. Details for antibodies are provided in Supplemental Table 1.
Immunofluorescence assays in retinal organoids and mouse retinal tissues were performed as previously described (4). Briefly, mice were sacrificed using CO2 asphyxiation, and the eyes were enucleated and fixed with a solution of 4% paraformaldehyde in PBS (Thermo Scientific™) for two hours at RT, followed by washing with PBS for 10 minutes in a shaker. Retinas were isolated and incubated in 0.5% BSA solution overnight at 4 °C. Retinas were then washed with PBS 3 times for 10 minutes in the shaker and stained with isolectin B4 (Invitrogen; 1:200 dilution in PBS) overnight at 4 °C. After washing 3 times for 10 minutes each in the shaker, the retinas were mounted. Images were captured with Zeiss fluorescent microscope. Eight fields per eye (2 fields per petal) including area of neovascularization were selected and fluorescence intensity was measured by ImageJ software. […]
The eyes were enucleated and immediately immersed in 4% (wt/vol) paraformaldehyde for 2 hours at room temperature. Retinas were isolated and wholemounts prepared on clean glass slides and mounted vitreous side up under coverslips with antifade medium (Vectashield; Vector Laboratories, Burlingame, CA). Images were captured by Zeiss fluorescent microscope or confocal microscopy and fluorescence was quantified by the image J software (National Institutes

[1] = OIR mice, Figure 10E, individual values

Brc1ccc2c(-c3csc(-c4c[nH]c5c(Br)cccc45)n3)c[nH]c2c1 [32-134D, 4-(6-bromo-1H-indol-3-yl)-2-(7-bromo-1H-indol-3-yl)thiazole]
retinal NV in OIR mice (in words) (5 consecutive days of i.p. injections 20 mg/kg 32-134D): marked reduction in retinal NV | Figure 14 C (retinal NV, OIR) (14ng intraocular, individual values): 3.954 and 13.1715 and 11.5498 and 7.756 and 10.0719 and 10.2983 | Figure 14 C (retinal NV, OIR) (70ng intraocular, individual values): 3.009 and 6.226 and 3.283 and 2.049 and 6.5224 and 7.021 | Figure 14 E (retinal NV, OIR) (Figure 14E, 280ng intraocular, individual values): 3.652 and 2.167 and 0.762 and 1.534 and 2.454 and 1.3869 | avascular area (%) [1]: 39.7919% and 29.3948% and 27.2246% and 38.1203% and 35.7742% and 31.6081% and 33.2821% and 34.1% | neovascular area (%) [1]: 6.529% and 6.16% and 5.906% and 5.171% and 3.4% and 5.22% and 4.584% and 1.45% | inhibition of retinal NV at P17 (OIR mice, single intraocular injection 32-134D 14 ng at P12): ~75% | inhibition of retinal NV at P17 (OIR mice, single intraocular injection 32-134D 280 ng at P12): approximately 85%
